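1) Cells in 96-well plates. 2) Compound, 48 h, 5 concentrations. 3) Linear interpolation between surrounding doses. 4) Unreached endpoint = highest concentration. At the TGI there is no net growth.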
Assays:
Test in all cases: growth of human tumour cells (NCI), 48 h
786-0 renal = system: 786-0 renal
A498 renal = system: A498 renal
A549 NSCLC = system: A549 NSCLC
ACHN renal = system: ACHN renal
CAKI-1 renal = system: CAKI-1 renal
CCRF-CEM leukemia = system: CCRF-CEM leukemia
COLO 205 colon = system: COLO 205 colon
DU-145 prostate = system: DU-145 prostate
EKVX NSCLC = system: EKVX NSCLC
HCC-2998 colon = system: HCC-2998 colon
HCT-116 colon = system: HCT-116 colon
HCT-15 colon = system: HCT-15 colon
HL-60(TB) leukemia = system: HL-60(TB) leukemia
HOP-62 NSCLC = system: HOP-62 NSCLC
HOP-92 NSCLC = system: HOP-92 NSCLC
HS 578T breast = system: HS 578T breast
HT29 colon = system: HT29 colon
IGROV1 ovarian = system: IGROV1 ovarian
K-562 leukemia = system: K-562 leukemia
KM12 colon = system: KM12 colon
LOX IMVI melanoma = system: LOX IMVI melanoma
M14 melanoma = system: M14 melanoma
MALME-3M melanoma = system: MALME-3M melanoma
MCF7 breast = system: MCF7 breast
MDA-MB-231 breast = system: MDA-MB-231 breast
MDA-MB-435 = system: MDA-MB-435
MDA-N = system: MDA-N
MOLT-4 leukemia = system: MOLT-4 leukemia
NCI-H226 lung = system: NCI-H226 lung
NCI-H23 lung = system: NCI-H23 lung
NCI-H460 lung = system: NCI-H460 lung
NCI-H522 lung = system: NCI-H522 lung
NCI/ADR-RES ovarian = system: NCI/ADR-RES ovarian
OVCAR-3 ovarian = system: OVCAR-3 ovarian
OVCAR-4 ovarian = system: OVCAR-4 ovarian
OVCAR-5 ovarian = system: OVCAR-5 ovarian
OVCAR-8 ovarian = system: OVCAR-8 ovarian
PC-3 prostate = system: PC-3 prostate
RPMI-8226 leukemia = system: RPMI-8226 leukemia
RXF 393 renal = system: RXF 393 renal
SF-268 CNS = system: SF-268 CNS
SF-295 CNS = system: SF-295 CNS
SF-539 CNS = system: SF-539 CNS
SK-MEL-2 melanoma = system: SK-MEL-2 melanoma
SK-MEL-28 melanoma = system: SK-MEL-28 melanoma
SK-MEL-5 melanoma = system: SK-MEL-5 melanoma
SK-OV-3 ovarian = system: SK-OV-3 ovarian
SN12C renal = system: SN12C renal
SNB-19 CNS = system: SNB-19 CNS
SNB-75 CNS = system: SNB-75 CNS
SR leukemia = system: SR leukemia
SW-620 colon = system: SW-620 colon
T-47D breast = system: T-47D breast
TK-10 renal = system: TK-10 renal
U251 CNS = system: U251 CNS
UACC-257 melanoma = system: UACC-257 melanoma
UACC-62 melanoma = system: UACC-62 melanoma
UO-31 renal = system: UO-31 renal
BT-549 breast = system: BT-549 breast

Measured: TGI

O=S1(=O)CS(=O)(=O)OCCCO1
not listed: BT-549 breast
> 100 µM: all other assays above

CC(=O)OCC12C(OC(C)=O)C[C@@H](C)C3(CC(c4ccoc4)OC3=O)C1CCC(O)C21CO1 (stereo partly specified)
not listed: CCRF-CEM leukemia | EKVX NSCLC | NCI-H460 lung | SK-OV-3 ovarian | SW-620 colon | T-47D breast
> 100 µM: all other assays above

Reference: PubChem BioAssay (NCI)
